Reference: patent US20110015208A1, “PHARMACEUTICAL COMPOSITIONS CONTAINING DOPAMINE RECEPTOR LIGANDS AND METHODS OF TREATMENT USING DOPAMINE RECEPTOR LIGANDS” (priority 2007, published 2011)
Entries after “also recorded” stand apart in the source; their conditions may differ. Where a name gives a salt, the structure may show the parent alone.

Columns and labels:
Type in all cases: in vivo, rat
[1] = test system: extracellular dopamine (DA) in the frontal cortex; assay: Dual-probe microdialysis, dopamine in frontal cortex of freely-moving rats
Description: (§1) A dual-probe microdialysis study was conducted to determine the effects of oral administration of cariprazine hydrochloride, alone and in combination with escitalopram oxalate (administered subcutaneously), on extracellular concentrations of acetylcholine (ACh), dopamine (DA) and serotonin (5-HT) in the frontal cortex of freely-moving rats.
(§2) Experiments were carried out in male Sprague Dawley rats (250-350 g body weight; Charles River, UK). Animals were housed in groups of six on a 12 h/12 h light/dark cycle (lights on at 07.30 h), at an ambient temperature of 21±2° C. and 55±20% humidity. Food and water were available ad libitum. Animals were allowed to acclimatise to these conditions for at least 5 days prior to the study.
Rats were anaesthetised with isoflurane (5% to induce, 2% to maintain) in an O2/N2O (1 litre/min each) mixture delivered via an anaesthetic unit (St Bernard Medical Services, UK). […] Samples were measured from the same side in each rat (e.g. left probe was used to measure ACh and right probe was used to measure DA and 5-HT). […]

[2] = test system: extracellular acetylcholine (ACh) in the frontal cortex; assay: Dual-probe microdialysis, acetylcholine in frontal cortex of freely-moving rats; conditions: for change in basal ACh levels compared to vehicle+saline-treated controls: escitalopram oxalate 1.0 mg/kg sc
Description: as §1, §2
Rats were anaesthetised with isoflurane (5% to induce, 2% to maintain) in an O2/N2O (1 litre/min each) mixture delivered via an anaesthetic unit (St Bernard Medical Services, UK). Concentric microdialysis probes with 2 mm exposed polyarylethersulphone (PAES) membrane tip (CMA) were stereotaxically implanted bilaterally into the prefrontal cortex (coordinates: AP: +3.2 mm; L: +/−2.5 mm relative to bregma; V: −4.0 mm relative to the skull surface; taken from the stereotaxic atlas of Paxinos and Watson (Paxinos G, Watson C., The Rat Brain in Stereotaxic Coordinates, 2nd Edition, London: Academic Press, 1986). The upper incisor bar was set at 3.3 mm below the interaural line so that the skull surface between bregma and lambda was horizontal. The coordinates for each probe were identical from bregma except for the lateral measurement as one probe was placed to the left of the midline and the other to the right. Samples were measured from the same side in each rat (e.g. left probe was used to measure ACh and right probe was used to measure DA and 5-HT). Additional burr holes were made for skull screws (stainless steel) and the probes were secured using dental cement. […]

[3] = test system: chronic mild stress (CMS) model of depression; assay: Chronic mild stress (CMS) model of depression, sucrose consumption (Example 3); conditions: for sucrose consumption in stressed animals compared to vehicle: 5 weeks; for time until increase in sucrose intake reached statistical significance vs Week 0: stressed animals
Excerpt: Similar to the study described in Example 2, additional studies were undertaken to further evaluate the antidepressant effect of cariprazine hydrochloride, administered alone, or in combination with escitalopram oxalate, in a chronic mild stress model of depression
In the chronic mild stress (CMS) model, rats subjected to a variety of mild stressors for a prolonged period of time show a substantial decrease in their responsiveness to rewarding stimuli. This deficit is usually monitored by a decrease in the consumption of a 1% sucrose solution, but can also be seen in other tests, such as place preference conditioning or intracranial self-stimulation. The subsensitivity to reward appears to reflect anhedonia (inability to experience pleasure), which is a core symptom of major depressive disorders. Clinically approved antidepressants have shown activity in this animal model by reversing the effects of CMS on sucrose consumption. See, e.g., Sanchez C, Gruca P, Papp M, Behavioural Pharmacology 14, 465-470, 2003.
Male Wistar rats (Charles River, Germany) were brought into the laboratory two months before the start of the experiment. Except as described below, the animals were singly housed with food and water freely available, and were maintained on a 12-h light/dark and in a constant temperature (22±2° C.) and humidity (50±5%) conditions.
The animals were first trained to consume a 1% sucrose solution; training consisted of nine 1 h baseline tests in which sucrose was presented, in the home cage, following 14 h food and water deprivation. The sucrose intake was measured by weighing pre-weighed bottles containing the sucrose solution, at the end of the test. Subsequently, sucrose consumption was monitored, under similar conditions, at weekly intervals throughout the whole experiment.
On the basis of their sucrose intakes in the final baseline test, the animals were divided into two matched groups. One group of animals was subjected to the chronic mild stress procedure for a period of 7 consecutive weeks. Each week of stress regime consisted of: two periods of food or water deprivation, two periods of 45 degree cage tilt, two periods of intermittent illumination (lights on and off every 2 h), two periods of soiled cage (250 ml water in sawdust bedding), one period of paired housing, two periods of low intensity stroboscopic illumination (150 flashes/min), and three periods of no stress. All stressors were 10-14 h of duration and were applied individually and continuously, day and night. Control animals were housed in separate rooms and had no contact with the stressed animals. They were deprived of food and water for 14 h preceding each sucrose test, but otherwise food and water were freely available in the home cage.

[4] = cariprazine hydrochloride alone 0.03, 0.1 and 0.3 mg/kg po
[5] = escitalopram oxalate 2 mg/kg IP once daily

CN(C)C(=O)N[C@H]1CC[C@H](CCN2CCN(c3cccc(Cl)c3Cl)CC2)CC1 [Cariprazine hydrochloride, trans-4-{2-[4-(2,3-dichlorophenyl)-piperazin-1-yl]-ethyl}-N,N-dimethylcarbamoyl-cyclohexylamine hydrochloride]
efflux of DA in the frontal cortex [1, 4]: no significant effect | efflux of ACh in the frontal cortex [2, 4]: no significant effect | sucrose consumption in stressed animals compared to vehicle ([3]; cariprazine hydrochloride 0.01 mg/kg alone, IP once daily): significantly decreased | sucrose consumption in stressed animals compared to vehicle ([3]; cariprazine hydrochloride 0.03 mg/kg alone, IP once daily): gradually increased | time until increase in sucrose intake reached statistical significance vs Week 0 ([3]; cariprazine hydrochloride 0.03 mg/kg alone, IP once daily, hydrochloride): after four weeks of treatment; also recorded: three weeks | sucrose consumption in stressed animals compared to vehicle ([3]; cariprazine hydrochloride 0.065 mg/kg IP once daily): gradually increased | time until increase in sucrose intake reached statistical significance vs Week 0 ([3]; cariprazine hydrochloride 0.065 mg/kg IP once daily, hydrochloride): after the first week of treatment; also recorded: following the first week of administration | magnitude of action relative to escitalopram oxalate ([3]; cariprazine hydrochloride alone, full recovery at the end of treatment period): comparable to that of escitalopram oxalate

CN(C)CCC[C@@]1(c2ccc(F)cc2)OCc2cc(C#N)ccc21 [Escitalopram oxalate, 1-[3-(dimethyl-amino)propyl]-1-(p-fluorophenyl)-5-phthalancarbonitrile]
basal DA levels ([1]; escitalopram oxalate 1.0 mg/kg sc): no effect | change in basal ACh levels compared to vehicle+saline-treated controls ([2]; 100 min post-administration): −55% | change in basal ACh levels compared to vehicle+saline-treated controls ([2]; 240 min post-administration): −56% | sucrose consumption in stressed animals compared to vehicle [3, 5]: gradually increased; also recorded: fully reversed | time until increase in sucrose intake reached statistical significance vs Week 0 [3, 5]: after three weeks of treatment
